According to patent US20210214358A1, “CDK4/6 INHIBITOR AND PHARMACEUTICALLY ACCEPTABLE SALT AND POLYMORPH THEREOF AND USE THEREOF” (SHANGHAI HAIYAN PHARMACEUTICAL TECHNOLOGY CO., LTD., priority 2018, published 2021):

What was measured:
CDK1 = target: T1, CDK1 (Homo sapiens, UniProt P06493); assay: Kinase test in vitro (LANCE Ultra, Ulight-4EBP1); type: biochemical
T1 construct: purchased BPS
Source text: (§1) Recombinant CDK1, CCNB1 and CDK9, and CCNT were purchased from BPS; CDK2, CCNA1, CDK4, CCND1 and CDK6, and CCND1 were purchased from Invitrogen; CDK4, CycD3 and CDK6, and CycD3 were purchased from Carna. Adenosine triphosphate (ATP) was purchased from Life tech. Substrate Ulight-4EBP1 and the corresponding detection antibody were purchased from Perkinelmer. LANCE Ultra system from Perkinelmer is used as the detection system.
(§2) In the kinase test, a compound to be tested was 1:3 diluted for 8 gradient points and added into a reaction plate, and then an appropriate amount of recombinase was added. A buffer [50 mM HEPES pH7.5, 10 mM MgCl2, 3 mM MnCl2, 1 mM EGTA, 0.01% Tween-20, 1 mM TCEP] containing ATP, Ulight-4EBP1 premix at a predetermined concentration was subsequently added, and the kinase reaction began at room temperature. A test solution pre-mixed with 10 mM EDTA and detection antibody was added after a suitable reaction time, and then the fluorescence value was read on Tecan infinite pro after reacting for 1 hour at room temperature. The IC50 was calculated using a four-factor model fitting in a XLfit software.

CDK2 = target: T2, CDK2 (Homo sapiens, UniProt P24941); assay: Kinase test in vitro (LANCE Ultra, Ulight-4EBP1); type: biochemical
T2 construct: purchased Invitrogen
Source text: as §1, §2

CDK4 = target: T3, CDK4 (Homo sapiens, UniProt P11802); assay: Kinase test in vitro (LANCE Ultra, Ulight-4EBP1); type: biochemical
T3 construct: purchased Invitrogen or Carna
Source text: as §1, §2

CDK6 = target: T4, CDK6 (Homo sapiens, UniProt Q00534); assay: Kinase test in vitro (LANCE Ultra, Ulight-4EBP1); type: biochemical
T4 construct: purchased Invitrogen or Carna
Source text: as §1, §2

[1] = Pharmacokinetics and brain distribution test; type: in vivo, SD rats; settings: rats, oral 10 mg/kg
Method: Test Animals: healthy adult male SD rats (weight 210-230 g per rat, 12 rats, fasted overnight, fed 4 hours after dosing), provided by SLAC company; preparation of oral solution: 40.14 mg of compound P-53 was weighed and added into a clean tube, and 36.479 mL of 0.5% HPC-H (TCI, E6ZQA) in acetate buffer (PH4.5) was added into the tube. The mixture was then vortexed for 1-2 min. Then the solution was sonicated for 20-25 min and stirred for 20-25 min.
SD rats were administered via intragastric administration (10 mg/kg (10 mL/kg)); samples were collected at 0.5, 1, 2 and 4 hr after dosing (total 4 timepoints), wherein only plasma samples were collected continuously, and brain tissue and cerebrospinal fluid were collected at each time point.
Blood collection: The animal was restrained manually and at each time point collected approximately 150 μL blood via tail vein into a K2EDTA-containing tube. Within 15 minutes, the blood sample was put on wet ice and centrifuged to obtain plasma sample (2000 g, 5 min under 4° C.). […]
Analytical method: the plasma and brain of SD rats were used as matrix, and Glipizide was used as an internal standard. […] The drug concentration was determined by LC-MS/MS method, the pharmacokinetic parameters in the plasma, brain tissue, and cerebrospinal fluid of rats are shown in Table 8: […]

T3 sequence (P11802 whole entry): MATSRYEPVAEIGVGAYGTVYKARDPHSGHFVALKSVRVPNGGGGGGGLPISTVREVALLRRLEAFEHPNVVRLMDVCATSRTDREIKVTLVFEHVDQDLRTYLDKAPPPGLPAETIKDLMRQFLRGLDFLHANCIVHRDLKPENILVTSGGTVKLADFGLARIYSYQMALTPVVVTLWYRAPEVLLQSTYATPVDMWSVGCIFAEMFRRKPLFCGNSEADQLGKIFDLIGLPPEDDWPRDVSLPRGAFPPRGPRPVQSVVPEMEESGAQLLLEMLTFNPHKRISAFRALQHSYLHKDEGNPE
T3 sequence (P24385 whole entry partner): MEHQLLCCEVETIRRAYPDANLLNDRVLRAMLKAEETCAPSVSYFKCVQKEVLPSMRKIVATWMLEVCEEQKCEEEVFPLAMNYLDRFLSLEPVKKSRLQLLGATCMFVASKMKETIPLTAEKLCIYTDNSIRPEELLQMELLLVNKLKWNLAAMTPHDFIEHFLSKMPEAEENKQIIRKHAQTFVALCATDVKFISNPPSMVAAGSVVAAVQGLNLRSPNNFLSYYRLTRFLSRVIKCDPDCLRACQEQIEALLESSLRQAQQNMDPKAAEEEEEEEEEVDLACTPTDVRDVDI
T4 sequence (Q00534 whole entry): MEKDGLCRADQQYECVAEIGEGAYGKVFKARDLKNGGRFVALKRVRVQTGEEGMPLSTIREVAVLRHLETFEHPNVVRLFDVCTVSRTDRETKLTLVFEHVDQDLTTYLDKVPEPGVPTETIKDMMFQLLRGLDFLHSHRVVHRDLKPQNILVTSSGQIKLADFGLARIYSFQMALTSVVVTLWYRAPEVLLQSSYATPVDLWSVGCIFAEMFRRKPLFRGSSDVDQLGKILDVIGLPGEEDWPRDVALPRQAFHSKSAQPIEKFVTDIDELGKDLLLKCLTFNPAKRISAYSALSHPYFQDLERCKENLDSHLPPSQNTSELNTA
T4 sequence (P24385 whole entry partner): as the sequence (P24385 whole entry partner) above
T1 sequence (P06493 whole entry): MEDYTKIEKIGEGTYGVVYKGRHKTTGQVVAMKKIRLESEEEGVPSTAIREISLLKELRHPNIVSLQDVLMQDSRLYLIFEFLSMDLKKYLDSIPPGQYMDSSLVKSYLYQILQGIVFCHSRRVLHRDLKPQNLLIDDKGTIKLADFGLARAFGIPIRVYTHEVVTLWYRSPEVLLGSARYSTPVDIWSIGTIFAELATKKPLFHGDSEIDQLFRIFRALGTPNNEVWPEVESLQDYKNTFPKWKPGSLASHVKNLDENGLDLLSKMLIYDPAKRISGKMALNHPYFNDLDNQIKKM
T1 sequence (P14635 whole entry partner): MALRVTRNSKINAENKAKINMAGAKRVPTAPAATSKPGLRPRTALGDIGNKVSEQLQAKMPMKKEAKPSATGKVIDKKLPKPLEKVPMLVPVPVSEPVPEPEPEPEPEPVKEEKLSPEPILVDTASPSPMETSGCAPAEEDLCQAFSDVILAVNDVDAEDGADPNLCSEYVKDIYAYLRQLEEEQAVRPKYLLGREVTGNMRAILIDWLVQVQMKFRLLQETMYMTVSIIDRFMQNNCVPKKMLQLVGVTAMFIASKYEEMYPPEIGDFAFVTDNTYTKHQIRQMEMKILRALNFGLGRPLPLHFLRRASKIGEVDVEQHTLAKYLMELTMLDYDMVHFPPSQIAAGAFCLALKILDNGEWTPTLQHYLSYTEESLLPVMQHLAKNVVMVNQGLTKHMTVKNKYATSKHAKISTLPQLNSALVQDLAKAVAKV

SMILES: CCN1CCN(Cc2ccc(Nc3ncc4c(n3)-c3c(nc(C5CC5)n3C(C)C)C4)nc2)CC1 [Free base of compound of formula X, 2-cyclopropyl-N-(5-((4-ethylpiperazin-1-yl)methyl)pyridin-2-yl)-3-isopropyl-3,8-dihydroimidazo[4′,5′,4,5]cyclopenta[1,2-d]pyrimidin-5-amine]
- IC50 (CDK1): 6.09 µM
- inhibitory activity against CDK1 (in words) (CDK1): weak inhibitory activity
- IC50 (CDK2): 8.75 µM
- inhibitory activity against CDK2 (in words) (CDK2): weak inhibitory activity
- IC50 (CDK4): 0.01 µM
- inhibitory activity against CDK4 (in words) (CDK4): strong inhibitory activity
- IC50 (CDK6): 0.057 µM
- inhibitory activity against CDK6 (in words) (CDK6): strong inhibitory activity
- brain permeability (in words) [1]: can cross the blood-brain barrier
